Columns and labels:
MV-4-11 = experiment: Oncology cell growth assay, MV-4-11 3 d growth; format: cell-based; details: Homo sapiens, MV4-11; MV-4-11 cells, 72 hours, CellTiter Glo; read-out: Cell activity (IC50 μM) MV-4-11 3 d-Growtb
Protocol: (§1) In this study, we test compounds in different cancer cell lines. MV-4-11 and MOLM-13 are AML cell lines harboring a MLL-AF4 and MLL-AF9 translocation, respectively. MM.1S is a multiple myeloma cell line. SK—N-AS, IMR-32 and SK-N-BE(2) are neuroblastoma cell lines. IMR-32 and SK-N-BE(2) cell lines harbor MYCN amplifications.
(§2) MV-4-11, MM.1S, IMR-32, SK-N-AS and SK-N-BE(2) were obtained from ATCC (IL, USA) and MOLM-13 were purchased from DSMZ (Braunschweig, German). Cells are cultured as recommended by their sources. For growth inhibition studies 3000 cells are seeded in wells of a 96-well plate in 75 μL of culture media. After several hours, growth media containing compounds of formula (I) are added to the wells. Compound at a maximal concentration of 5 mM was serially diluted 1:3 for a total of 8 point titration with DMSO as a control. A 1 μL aliquot of each dilution point is added to 249 μL growth media and 75 μL is added to each well containing cells, providing 10 μM compound at the maximum concentration point. The final concentration of DMSO in all wells is 0.2%. Cells are incubated for 72 hours, and 25 μL of CellTiter Glo Reagent (Promega Ga., USA) is added to each well. Plates are shaken for approximately 10 minutes and chemiluminescent signal is read on Tecan microplate reader. The measured luminescence correlates directly with cell number.
(§3) All data is normalized to the mean of eight DMSO high control wells on each plate. A four parameter curve fit of the following formula was then applied: Y=a+(b−a)/(1+(x/c)^d) Where ‘a’ is the minimum, ‘b’ is the maximum, ‘c’ is the pIC50 and ‘d’ is the Hill slope. […] Myc Reporter Assay

BRD4-BD12 = biological target: T1, BRD4-BD12 (Homo sapiens, UniProt O60885); experiment: Alphascreen binding assay, BRD4(1 2) H4; details: BRD4 dual bromodomains with acetylated Histone 4 peptide, read-out: Biochemical activity (IC50 μM) BRD4(1 2) H4
T1 construct: dual bromodomains (BRD4-BD12 (1-477), BRD4-BD12 (1-472)); six-His tag (N); made in house; host or cells: E. coli BL21-CodonPlus (DE3)
Protocol: Binding of compounds of formula (I) with bromodomain 2, 3 4 was assessed using Alphascreen binding assay. The inhibition of the interaction between bromodomain and its acetylated target protein (Filippakopoulos P et al. 2012) was measured quantitatively using recombinant BRD proteins, an acetylated Histone 4 peptide and AlphaScreen™ technology. In absence of inhibition the BRD protein bound to AlphaScreen™ nickel chelate acceptor beads can interact with the acetylated Histone 4 peptide which is immobilized by the AlphaScreen™ Streptavidin coated beads. This interaction brings donor and acceptor beads in proximity. The close proximity allows the singlet oxygen produced by laser excitation of the donor beads to reach the acceptor beads and generate a luminescence signal. BRD inhibitors result in a decrease in the proximity signal through an inhibition of the BRD acetylated peptide interaction.
Recombinant human bromodomains containing the N-terminal bromodomain (BRD2-BD1 (71-194), BRD3-BD1 (24-144) and BRD4-BD1 (44-164)) or dual bromodomains (BRD4-BD12 (1-477), BRD4-BD12 (1-472)) were prepared and purified as described in protein expression and purification session. The peptide is human Histone H41-21K5AcK8AcK12AcK16Ac-Biotin (Anaspec Calif., USA).
Protocol for BRD2, BRD3 and BRD4 assay: All components are prepared in buffer composed of 50 mM HEPES pH 7.5, 100 mM NaCl, 0.01% BSA, 0.01% Triton X-100, 2 mM DTT. 7 μL of Bromodomain protein and 7 μL of peptide are added to wells containing 1 μL of various concentrations of test compounds of formula (I) or DMSO vehicle in an Alphaplate (PerkinElmer Ga., USA) and incubated for 1 hour at room temperature. 4 μL donor and acceptor bead mixture is then added with final concentrations of 7.5 μg/ml. 30 minutes after bead addition, Alpha signal is read on the Envision spectrometer (λEx 680 nm, λEm 520-620 nm). Final concentrations of bromodomain proteins and peptide are as shown below.
All data was normalized to the mean of 16 high and 16 low control wells on each plate. A four parameter curve fit of the following formula was then applied: Y=a+(b−a)/(1+(x/c)^d) Where ‘a’ is the minimum, ‘b’ is the maximum, ‘c’ is the pIC50 and ‘d’ is the Hill slope. Protein Expression and Purification
Recombinant human bromodomains containing the N-terminal bromodomain (BRD2-BD1 (71-194), BRD3-BD1 (24-144) and BRD4-BD1 (44-164)) or dual bromodomains (BRD4-BD12 (1-477), BRD4-BD12 (1-472)) were expressed in E. coli cells (in a modified pET vector) with an N-terminal six-His tag and purified using a combination of both IMAC (Ni-affinity) and size exclusion chromatography steps.
Recombinant BRD proteins were expressed using the E. coli strain BL21-CodonPlus (DE3) (Agilent Technologies CA, USA). Cells were grown in Terrific Broth (TB) media to an OD600 of 1.2 at 37° C. at which temperature was reduced to 25° C., protein was induced with 1.0 mM IPTG for 12-18 hours and harvested by centrifugation at 8000×g for 20 minutes. Cells were re-suspended in 0.1M KPO4 pH 8.0, 250 mM NaCl, 10% Glycerol, 0.75% NP-40, 25 mM Imidazole, 5 mM BME with 0.2 mg/ml Lysosyme, 2.0 mM PMSF, 25 μg/ml DNAse I, incubated on ice for 30 minutes and lyzed with a cell disruptor (MicroFluidics MA, USA). The lysate was clarified by centrifugation at 20,000×g for 2 hours. The protein was captured with Ni-NTA resin (Life Technologies, USA). Contaminating proteins were washed off with 25 mM Tris-HCl pH 8.3, 250 mM NaCl, 12% Glycerol and 50 mM Imidazole. Following 3× wash steps, protein was eluted step wise using a 50 mM HEPES pH 7.5, 500 mM NaCl and 400 mM Imidazole. The protein was further purified using Gel Filtration column 26/600 Superdex 200 (GE Biosciences N.J., USA) in 50 mM HEPES pH 7.5, 250 mM NaCl. The protein was aliquoted and flash-frozen in liquid Nitrogen.

[1] = tested on: cancer cell lines / MV-4-11 Myc reporter cell line; experiment: Bromodomain cell assays of Example 8 (at least one of them); format: cell-based; details: Homo sapiens, MV4-11; at least one of the bromodomain cell assays described in Example 8
Protocol: as §1, §2, §3
In MV-4-11 cells, BRD2, BRD3 and BRD4 bind to the promoter region of MYC and regulate its transcription (Dawson M A et al. 2011). The literature bromodomain inhibitor iBET 151 could disrupt BRD4 recruitment to the MYC promoter and subsequently downregulate c-myc transcription (Dawson M A et al. 2011). Myc protein is a transcription factor that heterodimerizes with an obligatory partner Max and regulates the transcription of genes important for cell proliferation, differentiation, and apoptosis. This Myc reporter assay is used to monitor the inhibitory effect of compound of formula (I) on Myc dependent gene expression. Effective compounds could have potential therapeutic effects in Myc-driven tumors.
The MV-4-11 Myc reporter cell line is established by infecting MV-4-11 with VSV-g pseudotyped lentivirus expressing the firefly luciferase gene under the control of a minimal (m) CMV promoter and tandem repeats of the E-box transcriptional response element (TRE) (Qiagen IL, USA) and selecting cells in 2.5 μg/ml Puromycin.
The MV-4-11 Myc reporter cell line is maintained in Iscove's Modified Dulbecco's Medium containing 10% FBS, 1% PenStep and 2.5 μg/ml Puromycin. Cells are incubated at 37° C. in a humidified atmosphere with 5% CO2. 25,000 cells are seeded in 96-well plate in 50 μL of culture media. After several hours, growth media containing 2× compounds are added to the wells. Compound at a maximal concentration of 5 mM is serially diluted 1:3 for a total of 8 point titration. A 1 μl aliquot of each dilution point is added to 249 μl growth media and 50 μl is added to each well containing cells, providing 10 μM compound at the maximum concentration point. DMSO treated cells serve as a high control and 10 μM JQ1 treated cells serve as a low control. Cells are incubated for a further 24 hours and 25 μL of CellTiter-Fluo Reagent (Promega Ga., USA) is added to each well. Plates are shaken for approximately 2 minutes and incubated at 37° C. for 0.5 hour. Fluorescence signal is read in a Tecan Plate reader (λex=400 nm, λcm=505 nm). 25 μL of One-Glo Reagent (Promega Ga., USA) is then added to the plates. Chemiluminescent signal is read on Tecan plate reader. Values from the wells with no cells are subtracted from all samples for background correction. […]

SMILES	IC50 (MV-4-11)	IC50 (BRD4-BD12)	IC50 [1]
COC(=O)c1ccc(-c2cn(C(c3ccccc3)c3ccccn3)c3nc(-c4c(C)noc4C)cnc23)cc1 (stereo not drawn) [Compound P-2045, methyl 4-[3-(3,5-dimethylisoxazol-4-yl)-5-[phenyl(2-pyridyl)methyl]pyrrolo[2,3-b]pyrazin-7-yl]benzoate]	≤ 1 µM	≤ 1 µM	< 10000 nM
[2H]C([2H])(C1CCC(F)(F)CC1)n1nc(-c2cnn(C(F)F)c2)c2ncc(-c3c(C)noc3C)cc21 [Compound P-2084, 4-[1-[dideuterio-(4,4-difluorocyclohexyl)methyl]-3-[1-(difluoromethyl)pyrazol-4-yl]pyrazolo[4,3-b]pyridin-6-yl]-3,5-dimethyl-isoxazole]	≤ 1 µM	≤ 1 µM	< 10000 nM
[2H]C([2H])(C1CCC(F)(F)CC1)n1ccc2ncc(-c3nn(C(F)F)nc3C)nc21 [Compound P-2042]	10 to 200 µM	1 to 10 µM	< 10000 nM
COC(=O)Cc1ccc(-c2cn(C(c3ccccc3)c3ccccn3)c3nc(-c4c(C)noc4C)cnc23)cc1 (stereo not drawn) [Compound P-2047, methyl 2-[4-[3-(3,5-dimethylisoxazol-4-yl)-5-[phenyl(2-pyridyl)methyl]pyrrolo[2,3-b]pyrazin-7-yl]phenyl]acetate]	≤ 1 µM	≤ 1 µM	< 10000 nM
Cc1noc(C)c1-c1ccc2c(I)nn(C(c3ccccc3)c3ccccn3)c2c1 (stereo not drawn) [Compound P-2003, 4-[3-iodo-1-[phenyl(2-pyridyl)methyl]indazol-6-yl]-3,5-dimethyl-isoxazole]	≤ 1 µM	≤ 1 µM	< 10000 nM
Cc1noc(C)c1-c1ccc2c(I)nn([C@@H](C)c3ccccn3)c2c1 [Compound P-2010, 4-[3-iodo-1-[(1S)-1-(2-pyridyl)ethyl]indazol-6-yl]-3,5-dimethyl-isoxazole]	≤ 1 µM	≤ 1 µM	< 10000 nM
Cc1noc(C)c1-c1cnc2c(-c3cnn(CC(F)(F)F)c3)nn(CC3CCC(F)(F)CC3)c2c1 [Compound P-2083, 4-[1-[(4,4-difluorocyclohexyl)methyl]-3-[1-(2,2,2-trifluoroethyl)pyrazol-4-yl]pyrazolo[4,3-b]pyridin-6-yl]-3,5-dimethyl-isoxazole]	≤ 1 µM	≤ 1 µM	< 10000 nM
Cc1noc(C)c1-c1cnc2c(-c3ccc(C4(C(=O)O)CC4)cc3)cn([C@@H](C)c3ccccn3)c2n1 [Compound P-2054, 1-[4-[3-(3,5-dimethylisoxazol-4-yl)-5-[(1S)-1-(2-pyridyl)ethyl]pyrrolo[2,3-b]pyrazin-7-yl]phenyl]cyclopropanecarboxylic acid]	≤ 1 µM	≤ 1 µM	< 10000 nM
COC(=O)C1(c2ccc(-c3cn([C@@H](C)c4ccccn4)c4nc(-c5c(C)noc5C)cnc34)cc2)CC1 [Compound P-2053, methyl 1-[4-[3-(3,5-dimethylisoxazol-4-yl)-5-[(1S)-1-(2-pyridyl)ethyl]pyrrolo[2,3-b]pyrazin-7-yl]phenyl]cyclopropanecarboxylate]	≤ 1 µM	≤ 1 µM	< 10000 nM
Cc1noc(C)c1-c1cnc2c(c1)ncn2C(c1ccccc1)c1ccccn1 (stereo not drawn) [Compound P-2104, 3,5-dimethyl-4-[3-[phenyl(2-pyridyl)methyl]imidazo[4,5-b]pyridin-6-yl]isoxazole]	10 to 200 µM	1 to 10 µM	< 10000 nM
Cc1noc(C)c1-c1cnc2c(-c3ccc(C(=O)O)cc3)cn([C@@H](C)c3ccccn3)c2n1 [Compound P-2050, 4-[3-(3,5-dimethylisoxazol-4-yl)-5-[(1S)-1-(2-pyridyl)ethyl]pyrrolo[2,3-b]pyrazin-7-yl]benzoic acid]	≤ 1 µM	≤ 1 µM	< 10000 nM
Cc1noc(C)c1-c1cnc2c(I)cn([C@@H](C)c3ccccn3)c2n1 [Compound P-2056, 4-[7-iodo-5-[(1S)-1-(2-pyridyl)ethyl]pyrrolo[2,3-b]pyrazin-3-yl]-3,5-dimethyl-isoxazole]	≤ 1 µM	≤ 1 µM	< 10000 nM
